Experiment [1] relates to ET-1-induced CTGF expression in WI-38 cells. The experiment in a line: ET-1-induced CTGF expression in WI-38 cells (Western blot). The conditions noted are these: WI-38 lung fibroblasts, 0.3, 1, 3 or 10 μM for 30 min before and during 2 h ET-1 (10 nM). Format: cell-based, human. The protocol:
FIGS. 2 (A) and (B) show the effect of L056 on ET-1-induced CTGF expression in WI-38 cells. WI-38 lung fibroblasts were incubated with different concentrations of L056 (0.3, 1, 3 or 10 μM) for 30 min before and during incubation for 2 h with ET-1 (10 nM). […] (A), Western blot plot; (B), Quantitative assay of Western blot. WI-38 cells, a normal human embryonic lung fibroblast cell line, were obtained from American Type Culture Collection (Manassas, VA). Cells were grown in MEM nutrient mixture, containing 10% FCS, 2 mM L-glutamine, 0.1 mM NEAA, 1 mM sodium pyruvate, 50 U/ml penicillin G, and 100 µg/ml streptomycin, in a humidified 37° C. incubator with 5% CO2 Cells were used between passages 18 and 30 for all experiments. After reaching confluence, cells were seeded onto 6-cm dishes for immunoblotting. Western blot analyses were performed as described previously (Chen B C, Chang Y S, Kang J C, Hsu M J, Sheu J R, Chen T L, et al. Peptidoglycan induces nuclear factor-kappaB activation and cyclooxygenase-2 expression via Ras, Raf-1, and ERK in RAW 264.7 macrophages. J Biol Chem 2004; 279:20889-97). Briefly, WI-38 lung fibroblasts were cultured in 6-cm dishes. […] The immunoreactivity was detected using enhanced chemiluminescence (ECL) following the manufacturer's instructions. Quantitative data were obtained using a computing densitometer with scientific imaging systems (Kodak, Rochester, NY). […]
(In general: A western blot detects proteins with antibodies after separation by electrophoresis.)

Experiment [2] has as its system TGF-β-induced collagen expression in WI-38 cells. In words: TGF-β-induced collagen expression in WI-38 cells (Western blot, immunofluorescence). Format: cell-based, human. To be noted: WI-38 lung fibroblasts, 0.3, 1, 3 or 10 μM, TGF-β (10 ng/mL). The protocol:
FIGS. 4 (A), (B) and (C) show the effect of L056 on TGF-β-induced collagen expression in WI-38 cells. WI-38 lung fibroblasts were incubated with different concentrations of L056 (0.3, 1, 3 or 10 μM) for 30 min before and during incubation for 2 h with TGF-β (10 ng/mL). […] (A), Western blot plot; (B), Quantitative assay of Western blot; (C), Immunofluorescence plot. WI-38 cells, a normal human embryonic lung fibroblast cell line, were obtained from American Type Culture Collection (Manassas, VA). Cells were grown in MEM nutrient mixture, containing 10% FCS, 2 mM L-glutamine, 0.1 mM NEAA, 1 mM sodium pyruvate, 50 U/ml penicillin G, and 100 µg/ml streptomycin, in a humidified 37° C. incubator with 5% CO2 Cells were used between passages 18 and 30 for all experiments. After reaching confluence, cells were seeded onto 6-cm dishes for immunoblotting. Western blot analyses were performed as described previously (Chen B C, Chang Y S, Kang J C, Hsu M J, Sheu J R, Chen T L, et al. Peptidoglycan induces nuclear factor-kappaB activation and cyclooxygenase-2 expression via Ras, Raf-1, and ERK in RAW 264.7 macrophages. J Biol Chem 2004; 279:20889-97). […] The immunoreactivity was detected using enhanced chemiluminescence (ECL) following the manufacturer's instructions. Quantitative data were obtained using a computing densitometer with scientific imaging systems (Kodak, Rochester, NY). […]

For the compound `O=C(Nc1ccncc1)c1ccc(CNC2=C(Cl)C(=O)c3ccccc3C2=O)cc1` [Example L056, 4-(((3-chloro-1,4-dioxo-1,4-dihydronaphthalen-2-yl)amino)methyl)-N-(pyridin-4-yl)benzamide], the “ET-1-induced CTGF production/expression” value in experiment [1] is reported as “significantly inhibited”; in experiment [1] (listed as MPTOL0560) it was “inhibited”. Also, the TGF-β-induced collagen production/expression entry is “significantly inhibited” in experiment [2] and “inhibited” in experiment [2] (listed as MPTOL056).

Values taken from US12453708B2, “Aminonaphthoquinone compounds for treatment and/or prevention of fibrosis diseases” (CALGENT BIOTECHNOLOGY CO., LTD., priority 2015, dated 2025).
